Laboratory results from US8084469B2, “Substituted piperidines” (Bayer Pharma Aktiengesellschaft, priority 2009, dated 2011).

target: T1, human protease activated receptor 1 (PAR-1) (Homo sapiens, UniProt P25116); test: Cellular functional in vitro test (aequorin luminescence in recombinant HEK293 PAR-1 test cell); assay type: cell-based; settings: PAR-1 test cell (HEK293-derived), PAR-1 agonist at EC50 concentration, aequorin light signal
T1 construct: the cell stably expresses the endogenous human PAR-1 receptor; endogenous in cells; host or cells: HEK293-derived recombinant cell line; only the aequorin reporter is recombinant
T1 sequence (P25116 22-425): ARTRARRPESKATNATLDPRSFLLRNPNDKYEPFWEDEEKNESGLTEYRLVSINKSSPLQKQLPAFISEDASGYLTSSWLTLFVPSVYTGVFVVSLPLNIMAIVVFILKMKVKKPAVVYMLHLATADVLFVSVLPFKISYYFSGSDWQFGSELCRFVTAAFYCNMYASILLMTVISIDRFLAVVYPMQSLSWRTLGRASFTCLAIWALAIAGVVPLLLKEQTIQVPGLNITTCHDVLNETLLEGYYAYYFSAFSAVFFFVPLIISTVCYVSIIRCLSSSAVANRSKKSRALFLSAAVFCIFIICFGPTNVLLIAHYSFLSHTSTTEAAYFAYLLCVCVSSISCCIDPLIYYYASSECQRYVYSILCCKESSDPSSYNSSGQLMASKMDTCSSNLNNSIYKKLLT
Description: Cellular Functional In Vitro Test
A recombinant cell line is used to identify antagonists of the human protease activated receptor 1 (PAR-1) and to quantify the activity of the substances described herein. The cell is originally derived from a human embryonal kidney cell (HEK293; ATCC: American Type Culture Collection, Manassas, Va. 20108, USA). The test cell line constitutively expresses a modified form of the calcium-sensitive photoprotein aequorin which, after reconstitution with the cofactor coelenterazine, emits light when the free calcium concentration in the inner mitochondrial compartment is increased (Rizzuto R, Simpson A W, Brini M, Pozzan T.; Nature 1992, 358, 325-327). Additionally, the cell stably expresses the endogenous human PAR-1 receptor and the endogenous purinergic receptor P2Y2. The resulting PAR-1 test cell responds to stimulation of the endogenous PAR-1 or P2Y2 receptor with an intracellular release of calcium ions, which can be quantified through the resulting aequorin luminescence with a suitable luminometer (Milligan G, Marshall F, Rees S, Trends in Pharmacological Sciences 1996, 17, 235-237).
For the testing of the substance specificity, the effect thereof after activation of the endogenous PAR-1 receptor is compared with the effect after activation of the endogenous purinergic P2Y2 receptor which utilizes the same intracellular signal path.
Test procedure: The cells are plated out two days (48 h) before the test in culture medium (DMEM F12, supplemented with 10% FCS, 2 mM glutamine, 20 mM HEPES, 1.4 mM pyruvate, 0.1 mg/ml gentamycin, 0.15% Na bicarbonate; BioWhittaker Cat.# BE04-687Q; B-4800 Verviers, Belgium) in 384-well microtitre plates and kept in a cell incubator (96% atmospheric humidity, 5% v/v CO2, 37° C.). On the day of the test, the culture medium is replaced by a tyrode solution (in mM: 140 sodium chloride, 5 potassium chloride, 1 magnesium chloride, 2 calcium chloride, 20 glucose, 20 HEPES), which additionally contains the cofactor coelenterazine (25 μM) and glutathione (4 mM), and the microtitre plate is then incubated for a further 3-4 hours. The test substances are then pipetted onto the microtitre plate, and 5 minutes after the transfer of the test substances into the wells of the microtitre plate the plate is transferred into the luminometer, a PAR-1 agonist concentration which corresponds to EC50 is added and the resulting light signal is immediately measured in the luminometer. To distinguish an antagonist substance action from a toxic action, the endogenous purinergic receptor is immediately subsequently activated with agonist (ATP, final concentration 10 μM) and the resulting light signal is measured.

| IC50 [nM] | Structure (SMILES) |
| --- | --- |
| 21.1 | CCOc1noc(C2CC(c3ccc(CC(F)(F)F)cc3)CN(C(=O)N3CCS(=O)(=O)CC3)C2)n1 (single isomer, unassigned) [Example 69, (1,1-Dioxidothiomorpholin-4-yl){3-(3-ethoxy-1,2,4-oxadiazol-5-yl)-5-[4-(2,2,2-trifluoroethyl)-phenyl]piperidin-1-yl}methanone] |
| 64.5 | CCOc1noc(C2CC(c3ccc(CC(F)(F)F)cc3)CN(C(=O)N3CC[S+]([O-])CC3)C2)n1 (single isomer, unassigned) [Example 66, {3-(3-Ethoxy-1,2,4-oxadiazol-5-yl)-5-[4-(2,2,2-trifluoroethyl)phenyl]piperidin-1-yl}(1-oxidothio-morpholin-4-yl)methanone] |
| 35.3 | CCOc1noc(C2CC(c3ccc(CC)cc3)CN(C(=O)N3CC(O)C3)C2)n1 (racemic) [Example 35, [3-(3-Ethoxy-1,2,4-oxadiazol-5-yl)-5-(4-ethylphenyl)piperidin-1-yl](3-hydroxyazetidin-1-yl)methanone] |
| 20.6 | CCc1ccc(C2CC(c3nc(OCCOC)no3)CN(C(=O)N3CCS(=O)(=O)CC3)C2)cc1 (single isomer, unassigned) [Example 63, (1,1-Dioxidothiomorpholin-4-yl){3-(4-ethylphenyl)-5-[3-(2-methoxyethoxy)-1,2,4-oxadiazol-5-yl]-piperidin-1-yl}methanone] |
| 8.7 | CCN(CC)c1noc(C2CC(c3ccc(C(F)(F)F)cc3)CN(C(=O)N3CCOCC3)C2)n1 (single isomer, unassigned) [Example 6, {3-[3-(Diethylamino)-1,2,4-oxadiazol-5-yl]-5-[4-(trifluoromethyl)phenyl]piperidin-1-yl}-(morpholin-4-yl)methanone] |
| 12 | CCOc1noc(C2CC(c3ccc(CC(F)(F)F)cc3)CN(C(=O)N3CCS(=O)(=O)CC3)C2)n1 (racemic) [Example 67, (1,1-Dioxidothiomorpholin-4-yl){3-(3-ethoxy-1,2,4-oxadiazol-5-yl)-5-[4-(2,2,2-trifluoroethyl)-phenyl]piperidin-1-yl}methanone] |
| 6.3 | CCOc1noc(C2CC(c3ccc(CC)c(F)c3)CN(C(=O)N3CCS(=O)(=O)CC3)C2)n1 (racemic) [Example 101, (1,1-Dioxidothiomorpholin-4-yl)[3-(3-ethoxy-1,2,4-oxadiazol-5-yl)-5-(4-ethyl-3-fluorophenyl)-piperidin-1-yl]methanone] |
| 14.3 | O=C(N1CCOCC1)N1CC(c2ccc(C(F)(F)F)cc2)CC(c2nc(NC3CC3)no2)C1 (racemic) [Example 9, {3-[3-(Cyclopropylamino)-1,2,4-oxadiazol-5-yl]-5-[4-(trifluoromethyl)phenyl]piperidin-1-yl}-(morpholin-4-yl)methanone] |
| 5.1 | CCOc1noc(C2CC(c3ccc(CC(F)(F)F)c(F)c3)CN(C(=O)N3CC[S+]([O-])CC3)C2)n1 (single isomer, unassigned) [Example 80, {3-(3-Ethoxy-1,2,4-oxadiazol-5-yl)-5-[3-fluoro-4-(2,2,2-trifluoroethyl)phenyl]piperidin-1-yl}(1-oxidothiomorpholin-4-yl)methanone] |
| 69.4 | CCN(CCO)c1noc(C2CC(c3ccc(C(F)(F)F)cc3)CN(C(=O)N3CCOCC3)C2)n1 (racemic) [Example 16, (3-{3-[Ethyl(2-hydroxyethyl)amino]-1,2,4-oxadiazol-5-yl}-5-[4-(trifluoromethyl)phenyl]piperidin-1-yl)(morpholin-4-yl)methanone] |
| 1.7 | CC(C)Oc1noc(C2CC(c3ccc(OC(F)(F)F)cc3)CN(C(=O)N3CCSCC3)C2)n1 (racemic) [Example 33, {3-(3-Isopropoxy-1,2,4-oxadiazol-5-yl)-5-[4-(trifluoromethoxy)phenyl]piperidin-1-yl}(thiomorpholin-4-yl)methanone] |
